Reference: PMC7064771, “Repurposed Drugs That Block the Gonococcus-Complement Receptor 3 Interaction Can Prevent and Cure Gonococcal Infection of Primary Human Cervical Epithelial Cells” (mBio, 2020)
Entries after “also recorded” stand apart in the source; their conditions may differ. Where two headings read alike, the source gives them in different places.

What was measured:
human rI-domain [1] = target: T1, human rI-domain (Homo sapiens, UniProt P11215); test: Surface plasmon resonance, immobilized human rI-domain; assay type: binding
T1 construct: Recombinant human and mouse I-domain proteins were made and purified as previously described; made in house
Method: (§1) SPR analyses were performed using a Biacore S200 system (GE Healthcare Life Sciences, Parramatta, NSW, Australia). Samples were analyzed at 25°C in phosphate-buffered saline (PBS) at a flow rate of 10 μl/min and by using single-cycle kinetics. Human rI-domain, mouse rI-domain, and human rCR3 were immobilized onto separate cells of a Series S CM5 sensor chip using an NHS capture kit (both from GE Healthcare Life Sciences) for purified pilin experiments. For experiments in which pilin-glycan-like structures were examined, human rI-domain and rCR3 were immobilized onto separate cells of a CM5 chip. A blank immobilization was used as a control/reference on all chips. MS11 wild-type and MS11 pglA pilin were serially diluted from 2 μM to 0.125 μM in PBS. Glycans (Dextra Laboratories, Reading, UK) (Table 2), resembling the gonococcal Gal(α1-3)diNAcBac pilin-linked glycan, were serially diluted from 2 μM to 0.0078 μM in PBS. Affinity data points were taken at 15 s after injection to avoid an artefactual signal resulting from bulk transport. SPR sensorgrams were analyzed using Biacore Evaluation software (GE Healthcare Life Sciences).

[2] = target: T2, human rCR3 (integrin αMβ2) (Homo sapiens, UniProt P05107+P11215); test: Surface plasmon resonance, immobilized human rCR3; assay type: binding
T2 construct: purchased R&D Systems
Method: as §1

[3] = target: T3, human rCR3 (integrin αMβ2) (Homo sapiens, UniProt P11215); test: Surface plasmon resonance, immobilized human rCR3; assay type: binding
T3 construct: purchased R&D Systems
Method: as §1

[4] = tested on: N. gonorrhoeae adherence to Pex cells; test: Fluorometric adherence assay, Pex cells; assay type: cell-based, human; conditions: for Gonococcal adherence to Pex cells (fluorescence): 1-h infection with GFP-expressing N. gonorrhoeae, competitor added simultaneously
Method: (§2) Fluorometric adherence assays were performed essentially as described previously ([36]). In brief, N. gonorrhoeae MS11 gfp was used to challenge (1 h) Pex or CHO cells simultaneously with peptide or drug competitor. Infected (devoid of peptide or drug) and uninfected (with peptide, drug, or dimethyl sulfoxide [DMSO] vehicle) control cell assays were treated in parallel with competitive peptide/drug inhibition assays. Fluorescence (485 nm excitation, 528 nm emission) intensity, corresponding to bacterial adherence, was recorded using a Synergy HT multimode microplate reader (BioTek Instruments, Winooski, VT, USA). Blank wells, devoid of Pex or CHO cells, were inoculated with bacteria and served as a control for nonspecific binding. Each assay was performed in triplicates on 3 separate occasions. Peptides used are described in Table S1. A nonparametric analysis of variance (ANOVA) was used to determine the statistical significance of the calculated mean of bacterial adherence.

[5] = tested on: N. gonorrhoeae adherence to CHO-CR3 cells; test: Fluorometric adherence assay, CHO-CR3 cells; assay type: cell-based, Chinese hamster; conditions: for Gonococcal adherence to CHO-CR3 cells (fluorescence): 1-h infection with GFP-expressing N. gonorrhoeae, competitor added simultaneously
Method: as §2

G2 peptide = target: T4, G2 peptide (Homo sapiens, UniProt P11215); test: SPR of glycans over immobilized biotin-AhxG2-streptavidin complex; assay type: binding; conditions: for KD, G2 Peptide: synthetic glycans over biotin-Ahx-labeled G2 peptide complexed with streptavidin, NCDI = no concentration-dependent interaction
T4 construct: corresponds to amino acids Arg197 to Pro211 of human CD11b
Method: To assess the kinetics of the selected peptides, biotinylated versions of each peptide were synthesized. This enabled immobilization via streptavidin onto Series S CM5 sensor chips. Purified biotin-AhxG2 (G2 peptide with a six-carbon spacer linked to biotin) (Table S1), was incubated with streptavidin (Sigma, Castle Hill, NSW, Australia) for 2 h on ice at a 12:1 molar ratio of peptide to protein. Unreacted peptide was removed using a 10-kDa-molecular-weight-cutoff size exclusion column (EMD Millipore, Bayswater, VIC, Australia). Semi-native SDS-PAGE analysis was used to confirm peptide binding to streptavidin. To this end, streptavidin-peptide complexes were added to nonreducing NuPAGE sample buffer (Life Technologies, Scoresby, VIC, Australia). To ensure that peptide-streptavidin complexes were not denatured, heat was not applied before loading onto SDS-polyacrylamide 4% to 12% gradient gels (Life Technologies). A streptavidin-biotin complex was used as a reference control for the molecular weight shift that could be attributed to the peptide. Serially diluted glycans (1 μM to 0.0625 μM) were flowed over sensor chips. Other aspects of SPR analysis were as described above.

human rI-domain [6] = target: T1, human rI-domain; test: Competitive SPR peptide library screen with galactobiose, rI-domain; assay type: binding; conditions: peptide-galactobiose molar ratio 25:1
Description: (§3) The human I-domain sequence (NP_000623.2, amino acids Gly127 to Ala325 of CD11b) was used to generate a peptide library (Mimotopes; Mulgrave, VIC, Australia). Each peptide comprised 15 amino acids, with a 5-amino-acid sliding window, to give a 10-amino-acid overlap down the sequence, for a total of 40 peptides (see Table S1 in the supplemental material). Competitive SPR (Biacore T200 system; GE Healthcare Life Sciences) was used to screen the blocking potential of the peptide library. To this end, 100 μg/ml of each peptide was mixed with […] (2 μM) α1-3 galactobiose and flowed over immobilized human rI-domain and rCR3 on a Series S CM5 chip. Flow cell 1 was a blank immobilization/reference cell. Blocking peptides were defined as those peptides in which the peptide plus glycan response was less than those for the peptide and glycan alone. SPR sensorgrams were analyzed as noted above.

rCR3 = target: T5, rCR3 (Homo sapiens, UniProt P11215); test: Competitive SPR peptide library screen with galactobiose, rCR3; assay type: binding; conditions: peptide-galactobiose molar ratio 25:1
T5 construct: purchased R&D Systems
Description: as §3

[7] = tested on: N. gonorrhoeae adherence to CHO-neo cells; test: Fluorometric adherence assay, CHO-neo cells; assay type: cell-based, Chinese hamster; conditions: 1-h infection; cells do not express CR3
Method: as §2

human rI-domain [8] = target: T1, human rI-domain; test: Repurposed drug SPR against human CR3 I-domain (single-cycle kinetics); conditions: 10 nM to 0.625 nM, read-out: KD, binding to human rI-domain
Method: Human rI-domain was immobilized onto a CM5 sensor chip with a blank control flow cell as described above. A combination of two FDA-approved drug libraries, Microsource-CPOZ (2,400 drugs) and ML Drug (741 drugs), was purchased from Compounds Australia. […] A single-concentration injection screen (yes/no) binding assay was performed. Binding was determined based on the response unit shift (equal to the molecular weight-corrected response units of the positive-control glycan) of the stability of the binding phase of the dissociation cycle. […] For carbamazepine and methyldopa, saturation occurred between 1.6 nM and 8 nM, and so a new concentration range (10 nM to 0.625 nM) was tested. […] All SPR sensorgrams and result plots described above were analyzed with Biacore S200 evaluation software (GE Healthcare Life Sciences). A literature review was used to evaluate the remaining drugs for known long-term safety in humans and known therapeutic concentrations.

human rI-domain [9] = target: T1, human rI-domain; test: Direct competition SPR, drug versus N. gonorrhoeae MS11 pilin; assay type: binding; conditions: drug and pilin at 1 μM
[10] = tested on: N. gonorrhoeae infection of Pex cells
Method: Infection studies were performed as previously described with modification using a multiplicity of infection of 100 ([44]). To establish infection before treatment, Pex cells were challenged with N. gonorrhoeae for 90 min. The infection medium was then removed, the cells were rinsed thrice, and fresh medium containing 0.1% DMSO (vehicle control), carbamazepine (100 pM to 100 μM), methyldopa (100 pM to 100 μM), or ceftriaxone (0.1 μg/ml or 0.5 μg/ml, positive control) was added. Infections then proceeded for an additional 24 h or 48 h, after which, the infection medium was removed. Pex cell monolayers were subsequently lysed, serial dilutions of the Pex cell lysates were plated, and viable gonococci were enumerated by counting CFU after 48 h of incubation (37°C, 5% CO2). For sequential infection assays, viable bacterial colonies that survived a treatment assay were harvested from the enumeration (CFU) plates and used to inoculate new Pex cell monolayers. For these sequential assays, each infection (the original infection or the infection with bacteria that had survived the original infection) proceeded for 24 h. Pex cells were then processed, and bacteria were enumerated, as described above. For all assays, the percentage of N. gonorrhoeae that survived carbamazepine, methyldopa, or ceftriaxone treatment was determined as a function of bacteria that survived DMSO treatment (set to 100%). All assays were performed in triplicates on 3 separate occasions. A nonparametric ANOVA was used to determine the statistical significance of bacterial survival.

N. gonorrhoeae strains = test: Well diffusion assay; assay type: cell-based, Neisseria gonorrhoeae; conditions: 100 pM to 100 μM in wells, overnight
Method: Well diffusion assays were performed essentially as described previously ([56]). Briefly, N. gonorrhoeae strains were spread uniformly across the surfaces of GC agar plates at a culture density of 10^7 bacteria per ml. Wells were then punctured within the agar surface to which carbamazepine or methyldopa (100 pM to 100 μM), 0.2 μg/ml ceftriaxone, 10 μg/ml ciprofloxacin, or 1% DMSO (vehicle control) was added. Following an overnight incubation (37°C, 5% CO2), inhibition of N. gonorrhoeae growth was measured as the diameter (in millimeters) of the area of clearing surrounding (and inclusive of) each well on each agar plate, i.e., the zone of inhibition (ZOI). For agar plates in which a ZOI was not visible, data were recorded as the diameter of the well (6 mm). Assays were performed in triplicates on 3 separate occasions. Statistical significance of data obtained was determined using a Student's t test.

[11] = synthetic glycans, NCDI = no interaction at any concentration between 0.0078 μM and 2 μM, read-out: KD, rI-domain
[12] = synthetic glycans, NCDI = no interaction at any concentration between 0.0078 μM and 2 μM, read-out: KD, rCR3
[13] = synthetic glycans, NCDI = no interaction at any concentration between 0.0078 μM and 2 μM

CC(=O)NC1C(O)OC(CO)C(OC2OC(CO)C(OC3OC(CO)C(O)C(O)C3O)C(O)C2O)C1O (centres unmarked) [P1 Antigen]
Kd (human rI-domain [1]; [11]): 0.202 ± 0.0487 µM | Kd [2, 12]: 0.0483 ± 0.0142 µM

OCC1OC(OC2C(O)C(CO)OC(OC3C(CO)OC(OC4C(O)C(O)OC(CO)C4O)C(O)C3O)C2O)C(O)C(O)C1O (stereo not drawn) [α1-3,β1-4,α1-3 Galactotetraose]
Kd (human rI-domain [1]; [11]): 0.32 ± 0.0672 µM | Kd [3, 12]: 0.0262 ± 0.00918 µM

H-CATFTAPGRTSTFSF-OH [P2, H-CATFTAPGRTSTFSF-OH]
Gonococcal adherence to Pex cells (fluorescence) [4]: nonblocking | Gonococcal adherence to CHO-CR3 cells (fluorescence) [5]: nonblocking

MS11 wild type: N. gonorrhoeae MS11 pilin modified with the Gal(α1-3)diNAcBac disaccharide glycan
Kd ([3]; purified pilin 0.125-2 μM, NCDI = no concentration-dependent interaction (no binding of ≤2 μM), read-out: KD, Human CR3): 0.907 ± 0.0438 µM

CC(=O)NC1C(O)OC(CO)C(OC2OC(CO)C(O)C(OC3OC(CO)C(O)C(O)C3O)C2O)C1O (centres unmarked) [Linear B-2 Trisaccharide]
Kd (human rI-domain [1]; [11]): 0.293 ± 0.0131 µM | Kd [2, 12]: 0.0448 ± 0.0181 µM

OC[C@H]1O[C@@H](O[C@H]2[C@H](O)[C@@H](O)[C@H](O)O[C@@H]2CO)[C@H](O)[C@@H](O)[C@H]1O [Lactose]
Kd (human rI-domain [1]; [11]): 0.117 ± 0.0133 µM | Kd [2, 12]: 0.138 ± 0.0337 µM

CO[C@H]1O[C@H](CO)[C@H](O)[C@H](O)[C@H]1O [Methyl-α-D-galactose]
Kd (human rI-domain [1]; [11]): 0.269 ± 0.0851 µM | Kd [2, 12]: 0.0565 ± 0.0198 µM | Kd (G2 peptide): 0.118 ± 0.0118 µM

H-RIHFTFKEFQNNPNP-OH [G2]
Blocking of galactobiose binding to rI-domain (human rI-domain [6]): able to block | Blocking of galactobiose binding to rCR3 (rCR3): able to block | Gonococcal adherence to Pex cells, difference from uninfected cells ([4]; 100 μM peptide, P ≥ 0.45): not significantly | Gonococcal adherence to Pex cells (fluorescence) [4]: decreased; also recorded: dose-dependent reduction | Gonococcal adherence to CHO-CR3 cells, difference from uninfected cells ([5]; 100 μM peptide, P ≥ 0.67): not significantly | Gonococcal adherence to CHO-CR3 cells (fluorescence) [5]: decreased; also recorded: dose-dependent reduction

OCC1OC(OC2C(O)C(O)OC(CO)C2O)C(O)C(O)C1O (centres unmarked) [Galactobiose]
Kd (human rI-domain [1]): 0.229 ± 0.0731 µM | Kd [2]: 0.0687 ± 0.00175 µM | Kd (G2 peptide): 0.174 ± 0.0451 µM

OC[C@H]1O[C@@H](O[C@H]2[C@H](O)[C@@H](O)[C@@H](O)O[C@@H]2CO)[C@H](O)[C@@H](O)[C@H]1O [αLactose]
Kd (human rI-domain [1]; [11]): 0.202 ± 0.0544 µM | Kd [2, 12]: 0.0798 ± 0.015 µM

C[C@](N)(Cc1ccc(O)c(O)c1)C(=O)O [methyldopa]
Gonococcal adherence to Pex cells (fluorescence) [4]: decreased in a dose-dependent manner | Gonococcal adherence to Pex cells (fluorescence) ([4]; listed as Methyldopa): dose-dependent decrease | Gonococcal adherence to CHO-CR3 cells (fluorescence) [5]: decreased in a dose-dependent manner; also recorded: CR3- and dose-dependent reduction | Gonococcal adherence to CHO-neo cells (fluorescence) [7]: but not to CHO-neo cells | Kd (human rI-domain [8]): 0.00101 µM | Blocking of the interaction of N. gonorrhoeae MS11 pilin with rCR3 or rI-domain (human rI-domain [9]): completely blocked | N. gonorrhoeae strain MS11 survival ([10]; 24 h posttreatment, 100 pM to 100 μM): dose-dependent reductions | Numbers of viable gonococci, low-passage-number gonococcal isolates ([10]; 24 h posttreatment, established Pex cell infections): significant reductions | Efficacy in treating multidrug-resistant gonococci compared with ceftriaxone ([10]; panel of multidrug-resistant N. gonorrhoeae isolates): more effective than ceftriaxone | Effect on gonococcal viability in the absence of Pex cells (zone of inhibition) (N. gonorrhoeae strains): no effect; also recorded: neither carbamazepine nor methyldopa had an effect

H-CNNPSSTVPHNVDFH-OH [P1]
Gonococcal adherence to Pex cells (fluorescence) [4]: nonblocking | Gonococcal adherence to CHO-CR3 cells (fluorescence) [5]: nonblocking

OC[C@H]1O[C@@](CO)(O[C@H]2O[C@H](CO)[C@@H](O)[C@H](O)[C@H]2O)[C@@H](O)[C@@H]1O [Sucrose]
KD, rI-domain (human rI-domain [1]; [13]): did not bind and NCDI | KD, rCR3 [3, 13]: did not bind and NCDI | KD, G2 Peptide (G2 peptide): NCDI | KD, G2 Peptide (G2 peptide; listed as sucrose): no concentration-dependent interaction
